# Results published in patent US8329913B2, “Carbazole derivative, solvate thereof, or pharmaceutically acceptable salt thereof” (Zeria Pharmaceutical Co., Ltd., priority 2004, dated 2012).
# Biological target: T1, human PPARγ (Homo sapiens, UniProt P37231)
# T1 construct: 1.6 kb of fragment of the prepared plasmid pGEMT-hPPARg2 including human PPARγ gene; expressed in transfected cells; host or cells: CV-1 cells, transient transfection with pCI-hPPARg2, pCI-hRXRa and the reporter pGL3-PPRE3-TK
# T1 sequence (P37231 1-505): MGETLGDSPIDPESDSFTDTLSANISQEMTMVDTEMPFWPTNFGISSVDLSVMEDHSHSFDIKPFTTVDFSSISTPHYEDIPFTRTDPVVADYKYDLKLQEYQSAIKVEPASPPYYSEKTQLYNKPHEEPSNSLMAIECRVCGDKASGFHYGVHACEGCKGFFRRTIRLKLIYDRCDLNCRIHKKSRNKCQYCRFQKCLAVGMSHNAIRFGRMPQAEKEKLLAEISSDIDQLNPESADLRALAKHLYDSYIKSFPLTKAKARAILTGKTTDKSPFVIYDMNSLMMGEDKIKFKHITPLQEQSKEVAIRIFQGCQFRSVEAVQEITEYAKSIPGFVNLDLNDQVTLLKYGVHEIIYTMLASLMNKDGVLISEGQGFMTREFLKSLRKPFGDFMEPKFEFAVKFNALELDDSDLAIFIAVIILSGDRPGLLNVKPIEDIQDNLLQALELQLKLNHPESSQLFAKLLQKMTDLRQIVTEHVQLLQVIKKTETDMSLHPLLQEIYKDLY
# T1 sequence (P19793 1-462 partner): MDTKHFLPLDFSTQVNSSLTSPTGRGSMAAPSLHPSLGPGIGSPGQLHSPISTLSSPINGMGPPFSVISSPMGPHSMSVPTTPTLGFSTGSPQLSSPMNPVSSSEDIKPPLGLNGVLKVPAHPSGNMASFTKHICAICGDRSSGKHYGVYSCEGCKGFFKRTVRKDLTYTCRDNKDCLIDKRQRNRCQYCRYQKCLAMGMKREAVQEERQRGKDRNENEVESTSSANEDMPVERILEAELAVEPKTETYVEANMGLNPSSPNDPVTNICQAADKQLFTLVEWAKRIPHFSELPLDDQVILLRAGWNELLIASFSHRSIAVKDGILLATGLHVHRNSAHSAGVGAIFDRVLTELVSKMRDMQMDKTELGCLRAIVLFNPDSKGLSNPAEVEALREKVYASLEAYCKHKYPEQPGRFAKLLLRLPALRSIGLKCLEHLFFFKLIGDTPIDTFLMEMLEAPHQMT
# Test: Human PPARγ antagonist assay (luciferase reporter in transfected CV-1 cells)
# Format: cell-based
# Conditions: CV-1 cells expressing human PPARγ and RXRα with reporter plasmid; pioglitazone 1 μM as stimulant; 24 hours; read-out: Human PPARγ antagonist activities, Inhibition IC50
# Procedure: CV-1 cells (96 well plate), where human PPARγ and RXRα has expressed in the transient transfection of reporter plasmid (see reference 5a) were washed once with PBS (100 μL/well), and then supplemented with 100 μL/well […], as well as pioglitazone (not limited to pioglitazone shown as an example, but may be any PPARγ agonist) at a final concentration of 1 μM as a stimulant were added, and incubated in a 5% CO2 incubator at 37° C. for 24 hours. After removing the medium, the CV-1 cells were washed once with PBS (100 μL/well), and supplemented with 60 μL/well of 1× Passive Lysis Buffer (manufactured by Promega Corporation). The CV-1 cells were incubated at room temperature for 30 minutes, stirred, and then by using Dual-Luciferase Reporter Assay System (manufactured by Promega Corporation), luciferase activities of firefly and renilla were measured using 1420 ARVO Multilabel Counter (manufactured by Wallac Oy). Also, the same experiments as that described above were respectively carried out for the cases where only the above-mentioned stimulants (100 nM, 1 μM, 10 μM) were used, where only the above-mentioned test compounds were used, or where neither was used (nonsupplemented), and luciferase activities of firefly and renilla were measured. Values corrected by dividing the firefly luciferase activities by the renilla luciferase activities were calculated as specific activities and used for evaluations.
# Human PPARγ2 antagonist activities of the test compounds were evaluated by using a percentage (inhibition) where the specific activity in case only […] was added is regarded as 0% and the specific activity in case the test compound and the stimulant were not added is regarded as 100%. Moreover, the concentration of the test compound indicating the inhibition rate of 50% was calculated as the IC50 value. Also, human PPARγ2 agonist activities of the test compounds were evaluated by using a percentage (activity) where the specific activity when nonsupplemented is regarded as 0% and the specific activity in case only 10 μM stimulant was added is regarded as 100%, from the specific activity in case only the test compound is used.
# CV-1 cells were cultured in DMEM medium (manufactured by Invitrogen Corporation) including 10% fetal bovine serum (manufactured by Dainippon Pharmaceutical Co., Ltd.) in 225T-Flask (manufactured by Corning Costar). The cells were detached by 0.5 g/L trypsin-0.2 g/L EDTA (ethylene diamine tetra-acetic acid) (manufactured by Invitrogen Corporation), and then suspended in the DMEM medium including 10% fetal bovine serum to a cell concentration of 2×10^5 cells/mL. Thereafter, the cells were seeded into 96 well plate at 2×10^4 cells/0.1 mL/well, incubated in the 5% CO2 incubator at 37° C. overnight, and then the plasmids prepared by the above-mentioned reference 1a, reference 3a, and reference 4a were transfected into cells by using a lipofectamine reagent (manufactured by Invitrogen Corporation) according to the attached manual.
# Namely, after CV-1 cells were cultured overnight, the cells were washed with PBS (100 μL/well). Thereafter the cells were incubated for 5 hours at 37° C./5% CO2 in the MEM medium (manufactured by Invitrogen Corporation) including 430 ng/mL of human PPARγ expression plasmid (pCI-hPPARg2) prepared by the reference 1a, 430 ng/mL of human RXRα expression plasmid (pCI-hRXRa) prepared by the reference 3a, and 140 ng/mL of the reporter plasmid (pGL3-PPRE3-TK) prepared by the reference 4a, 10 ng/mL of phRL-TK vector (manufactured by Promega Corporation) and 2 μL/mL of lipofectamine.
row,Compound,IC50 [nM]
1,"COc1cc(Cn2c3ccccc3c3c(OC(C)(C)C(=O)[O-])cccc32)ccc1OCc1nc(-c2ccccc2)oc1C.[Na+] [Example 28, sodium 2-{9-[3-methoxy-4-((5-methyl-2-phenyl-oxazole-4-yl)methoxy)-benzyl]-9H-carbazole-4-yloxy}-2-methyl-propionate]",398
2,"COc1cc(Cn2c3ccccc3c3c(OC(C)(C)C(=O)O)cccc32)ccc1OCc1nc(-c2ccccc2)oc1C [Example 3, 2-{9-[3-methoxy-4-((5-methyl-2-phenyl-oxazole-4-yl)methoxy)-benzyl]-9H-carbazole-4-yloxy}-2-methyl-propionic acid]",420
3,"CCC(Oc1cccc2c1c1ccccc1n2Cc1ccc(OCc2nc(-c3ccccc3)oc2C)c(OC)c1)C(=O)O (racemic) [Example 5, (±)-2-{9-[3-methoxy-4-((5-methyl-2-phenyl-oxazole-4-yl)methoxy)-benzyl]-9H-carbazole-4-yloxy}butyric acid]",353
4,COc1cc(Cn2c3ccccc3c3c(OC(C)C(=O)[O-])cccc32)ccc1OCc1nc(-c2ccccc2)oc1C.[Na+] (racemic) [Example 30],983
5,"COc1cc(Cn2c3ccccc3c3c(OC(C)(C)C(=O)O)cccc32)ccc1OCc1nc(-c2ccccc2)sc1C [Example 15, 2-{9-[3-methoxy-4-((5-methyl-2-phenyl-thiazole-4-yl)methoxy)-benzyl]-9H-carbazole-4-yloxy}-2-methyl-propionic acid]",5980
6,"COc1cc(Cn2c3ccccc3c3c(O[C@H](C)C(=O)[O-])cccc32)ccc1OCc1nc(-c2ccccc2)oc1C.[Na+] [Example 43, sodium (R)-2-{9-[3-methoxy-4-((5-methyl-2-phenyl-oxazole-4-yl)methoxy)-benzyl]-9H-carbazole-4-yloxy}propionate]",1120
7,"Cc1oc(-c2ccccc2)nc1COc1ccc(Cn2c3ccccc3c3c(OC(C)(C)C(=O)O)cccc32)cc1 [Example 13, 2-methyl-2-{9-[4-((5-methyl-2-phenyl-oxazole-4-yl)methoxy)-benzyl]-9H-carbazole-4-yloxy}propionic acid]",5870
8,COc1cc(Cn2c3ccccc3c3c(OCCC(C)C(=O)[O-])cccc32)ccc1OCc1nc(-c2ccccc2)oc1C.[Na+] (racemic) [Example 37],354
9,"COc1cc(Cn2c3ccccc3c3c(OCC(C)(C)C(=O)O)cccc32)ccc1OCc1nc(-c2ccncc2)oc1C [Example 25, 3-{9-[3-methoxy-4-((5-methyl-2-pyridine-4-yl-oxazole-4-yl)methoxy)-benzyl]-9H-carbazole-4-yloxy}-2,2-dimethyl-propionic acid]",430
10,"COc1cc(Cn2c3ccccc3c3c(OCC(C)(C)C(=O)O)cccc32)ccc1OCc1nc(-c2ccco2)oc1C [Example 23, 3-{9-[4-((2-(furan-2-yl)-5-methyl-oxazole-4-yl)methoxy)-3-methoxy-benzyl]-9H-carbazole-4-yloxy}-2,2-dimethyl-propionic acid]",93
11,CCC(Oc1cccc2c1c1ccccc1n2Cc1ccc(OCc2nc(-c3ccccc3)oc2C)c(OC)c1)C(=O)[O-].[Na+] (stereo not drawn) [Example 31],406
12,"COc1cc(Cn2c3ccccc3c3c(OCCC(C)C(=O)O)cccc32)ccc1OCc1nc(-c2ccccc2)oc1C (racemic) [Example 27, (±)-4-{9-[3-methoxy-4-((5-methyl-2-phenyl-oxazole-4-yl)methoxy)-benzyl]-9H-carbazole-4-yloxy}-2-methyl-butyric acid]",688
13,COc1cc(Cn2c3ccccc3c3c(OC(C)(C)C(=O)[O-])cccc32)ccc1OCc1nc(-c2cccs2)oc1C.[Na+] [Example 32],422
14,"CC[C@H](Oc1cccc2c1c1ccccc1n2Cc1ccc(OCc2nc(-c3ccccc3)oc2C)c(OC)c1)C(=O)[O-].[Na+] [Example 38, sodium (S)-(+)-2-{9-[3-methoxy-4-((5-methyl-2-phenyl-oxazole-4-yl)methoxy)-benzyl]-9H-carbazole-4-yloxy}butyrate]",330
15,"COc1cc(Cn2c3ccccc3c3c(OC(C)(C)C(=O)O)cccc32)ccc1OCc1nc(-c2ccco2)oc1C [Example 7, 2-{9-[4-((2-(furan-2-yl)-5-methyl-oxazole-4-yl)methoxy)-3-methoxy-benzyl]-9H-carbazole-4-yloxy-}2-methyl-propionic acid]",1910
16,"COc1cc(Cn2c3ccccc3c3c(OCC(C)(C)C(=O)O)cccc32)ccc1OCc1nc(-c2cccs2)oc1C [Example 24, 3-{9-[3-methoxy-4-((5-methyl-2-(thiophene-2-yl)-oxazole-4-yl)methoxy)-benzyl]-9H-carbazole-4-yloxy}-2,2-dimethyl-propionic acid]",71
17,"COc1cc(Cn2c3ccccc3c3c(OC(C)(C)C(=O)O)cccc32)ccc1OCc1nc(-c2cccs2)oc1C [Example 8, 2-{9-[3-methoxy-4-((5-methyl-2-(thiophene-2-yl)-oxazole-4-yl)methoxy)-benzyl]-9H-carbazole-4-yloxy}-2-methyl-propionic acid]",545
18,"COc1cc(Cn2c3ccccc3c3c(OCC(C)(C)C(=O)O)cccc32)ccc1OCc1nc(-c2ccccc2)oc1C [Example 22, 3-{9-[3-methoxy-4-((5-methyl-2-phenyl-oxazole-4-yl)methoxy)-benzyl]-9H-carbazole-4-yloxy}-2,2-dimethyl-propionic acid]",122
19,"COc1cc(Cn2c3ccccc3c3c(OC(C)C(=O)O)cccc32)ccc1OCc1nc(-c2ccccc2)oc1C (racemic) [Example 4, (±)-2-{9-[3-methoxy-4-((5-methyl-2-phenyl-oxazole-4-yl)methoxy)-benzyl]-9H-carbazole-4-yloxy}propionic acid]",939
20,COc1cc(Cn2c3ccccc3c3c(OCC(C)(C)C(=O)[O-])cccc32)ccc1OCc1nc(-c2ccccc2)oc1C.[Na+] [Example 34],85

# Same assay, conditions: at 10 μM test compound; CV-1 cells expressing human PPARγ and RXRα; pioglitazone as stimulant; read-out: Human PPARγ antagonist activities, Inhibition % at 10 μM
row,inhibition at 10 µM [%],Compound
1,38.2,"COc1cc(Cn2c3ccccc3c3c(OC(C)(C)C(=O)O)cccc32)ccc1OCc1sc(-c2ccccc2)nc1C [Example 16, 2-{9-[3-methoxy-4-((4-methyl-2-phenyl-thiazole-5-yl)methoxy)-benzyl]-9H-carbazole-4-yloxy}-2-methyl-propionic acid]"
